The values below come from patent US12589101B2, “Cyclodextrin protein drug conjugates” (Regeneron Pharmaceuticals, Inc., priority 2017, dated 2026).

Values after ≈ are worked out from the molar mass of the structure shown. Where two headings read alike, the source gives them in different places. Square brackets hold non-standard residues; d marks the D form. Peptide text beside a SMILES is read from it. * marks the point of attachment. Dolaproine = CO[C@@H]([C@@H]1CCCN1)[C@@H](C)C(=O)O; Dil = CC[C@H](C)[C@H](NC)[C@@H](CC(=O)O)OC; X1 = C[C@@H](N*)[C@@H](O)c1ccccc1; NMeV = CN[C@H](C(=O)O)C(C)C

A short description of series [1]: Solubility of linker-payloads (LC-MS standard curve, saturated solution). In kind it is physicochemical. As for the experimental part: The following test assays the solubility of the linker-payloads with a cyclodextrin moiety and the linker-payloads without a cyclodextrin moiety.
The test compounds were dissolved in DMSO to build a standard curve using LC-MS method A or B. The test sample was dissolved in water and sonicated for 10 minutes, and then centrifuged. The upper clear solution was analyzed using the same method A or B and the solubility was calculated based on its peak area.
Detailed test procedures were as follows: • 1. […] 0.05 mg of compound was suspended in water (1 mL) and sonicated for 10 minutes. After centrifugation, the clear solution above was collected to provide the saturated sample solution. • 3. All the standard solutions A, B, C, D, E and sample solution were analyzed by LCMS (using the same method and same injection volume) to obtain the peak areas. • 4. Calculate the standard curve according to the data of A-D (X=concentration, Y=peak areas). • 5. Calculate to obtain the concentration of saturated sample solution according to the functions obtained above.

A further series deals with Cathepsin B (Homo sapiens, UniProt P07858). Briefly: Cathepsin B cleavage rate of linker-payloads (Example 66). In kind it is biochemical. Conditions: for capB / CapB (%): Cathepsin B cleavage rate; for capB: Table 8A; for CapB (%): pH 5.0, 37° C. The protocol:
Step 1: Preparation of Cathepsin B buffer: 0.1 M NaOAc/0.01M DTT (pH5.0) Dissolve 8.3 g/L NaOAc, 1.54 g/L DTT in deionized water. Adjust pH to 5.0 with HCl/sodium hydroxide.
Step 2: Test Cleavage Rate
• 1. Prepare 25 μM of testing sample: To a 2-mL-tube was added 0.5 mg of testing sample, followed by the addition of 0.2 mL of DMSO. The solution was added dropwise into 0.8 mL of 0.1 M NaOAc/0.01 M DTT buffer. The obtained mixtures were sonicated for 5 minutes to obtain clear and colorless solutions. The pH value of the solution was around 5 according to pH test strip. • 2. Preheat assay buffer: 0.1 M NaOAc/0.01 M DTT (pH 5.0) • 3. Spiking solutions for test compounds: 25 μM Spiking solutions for test compounds: Add 2 μL of 5 mM stock solution into 398 μL of 0.1 M NaOAc/0.01 M DTT buffer (pH 5.0). • 4. Prepare 0.47 μg/μL Cathepsin B in 50 mM NaOAc/1 mM EDTA (pH 5.0). Put on ice. • 5. Without CA074 samples: Add 4 μL of 0.47 μg/μL Cathepsin B into 196 μL of 25 μM Spiking solutions (from step 2), incubate the tubes at 37° C. • 6. With CA074 samples: Add 4 μL of 0.47 μg/μL Cathepsin B with 4 μL of 10 mM Inhibitor (CA074) into 196 μL of 25 μM Spiking solutions (from step 2), incubate the tubes. • 7. After quenching, shake the plate and centrifuge them at 14000 rpm. • 8. Transfer 50 μL of the supernatant from each well into a 96-well sample plate containing 50 μL of ultra pure water (Millipore, ZMQS50F01) for LC/MS analysis. Step 3: Test reference compounds: • 9. Preheat assay buffer: 100 mM Na/K phosphate, pH 6.0, with 1.33 mM EDTA and 2 mM DTT. • 10. Prepare 0.024 μg/μL Cathepsin B: Add 1 μL of 0.47 μg/μL Cathepsin B stock into 19 μL of assay buffer (from step 11). • 11. Add 2 μL of 0.024 μg/μL Cathepsin B (from step 12) to a opaque 96-well plate. • 12. Add 96 μL of assay buffer to each sample. • 13. Add 2 μL of the 10 mM substrate Z-RR-MNA (200 μM final concentration). • 14. For negative control (With inhibitor), add 2 μL of 10 mM Inhibitor (CA074): Immediately read the samples in a kinetic mode at excitation of 340 nm/emission of 425 nm (Read the plate every 30 Second for 3 min). Step 4: Stability of Cathepsin B in incubation samples: • 15. Take 5 μL of incubation samples into 93 μL of assay buffer (from step 11), and then add 2 μL of 10 mM substrate (Z-RR-MNA). • 16. Incubate the samples at 37° C. for 2 min. • 17. Read the samples at excitation of 340 nm/emission of 425 nm.

The target in a further series is T1, Human liver Cathepsin B (Homo sapiens, UniProt P07858).
T1 construct: Human liver Cathepsin B (Athens Research & Technology, Cat #16-12-030102); purchased Athens Research & Technology 16-12-030102; host or cells: human liver
In words: Cathepsin B cleavage assay, payload released (Example 73). It counts as biochemical. Conditions: 37° C., 50 μM substrate, pH 5. As for the experimental part:
To determine the effect on the cleavage efficiency on a steroid or LXR agonist payload when a cyclodextrin moiety was added in the linker, a Cathepsin B cleavage assay was performed. For the assay, the linker-payload stock solution (10 mM of linker-payload in DMSO) was added into a solution of 100 mM NaOAc, 10 mM dithiothreitol, at pH5 to obtain a 50 μM substrate solution. Human liver Cathepsin B (Athens Research & Technology, Cat #16-12-030102) in 50 mM NaOAc, 1 mM EDTA, at pH 5, was added to the substrate solution. The Cathepsin B and substrate solution was mixed with and without 10 mM of a Cathepsin B inhibitor (CA074; APE Bio, Cat #A1926), and incubated at 37° C. for 4 hours. Following the 4 hour incubation, acetic acid and then acetonitrile were added to stop the reaction. The quenched samples then underwent centrifugation at 14,000 rpm. Aliquots of the resultant supernatants were then diluted with equal volume of water and analyzed by LC/MS to determine the amount of payload released. The stability and activity of Cathepsin B was confirmed by incubating with 200 μM fluorogenic substrate for Cathepsin B (Santa Cruz Biotechnology, Cat #207975) (fluorescence at excitation of 340 nm/emission of 425 nm).

For another series, the system named is SKBR3 cells. Briefly: SKBR3 cytotoxicity assay (CellTiter-Glo). It counts as cell-based. As for the experimental part:
To assess the comparability of ADCs with and without CDs containing cytotoxic payloads, a cytotoxicity assay used SKBR3 cells. SKBR3 cells have been commonly used to assess aHer2 ADC activity. An aPRLR ADC has been used as a control mAb ADC in the SKBR3 cytotoxicity assay. For the assay, in vitro cytotoxicity of anti-Her2 ADCs or PRLR ADCs were evaluated using the CellTiter-Glo Assay Kit (Promega, Cat #G7573), in which the quantity of ATP present is used to determine the number of viable cells in culture. For the assay, SKBR3 cells were seeded at 6000 cells/well on Nunclon white 96 well plates in complete growth medium and grown overnight at 37° C. in 5% CO2. For cell viability curves, 1:4 serially diluted ADCs or free payload MMAE were added to the cells at concentrations starting at 100 nM including a no treatment control and were then incubated for 5 days. After the 5-day incubation, cells were incubated at room temperature with 100 μL of CellTiter-Glo reagents for 5 minutes. Relative luminescence units (RLU) were determined on a Victor plate reader (PerkinElmer). The IC50 values were determined from a four-parameter logistic equation over a 10-point response curve (GraphPad Prism). All curves and EC50 values were corrected for payload equivalents. All IC50s are expressed in nM concentration and percentage of cells killed (% kill) is reported for the highest concentration tested.

[2] abbreviates: water, thermodynamic from solid, Aq. Solubility (mg/mL).
Where [3] appears, read: water, thermodynamic from solid, Solubility.
Where [4] appears, read: water, thermodynamic from solid, Table 8A, read-out: Solubility.
[5] abbreviates: water, thermodynamic from solid, aqueous, read-out: Aq. Solubility.

As for `CC(C)[C@H](NC(=O)[C@@H](CCCCNC(=O)COC1CCCCCc2c1nnn2CC1OC2OC3C(CO)OC(OC4C(CO)OC(OC5C(CO)OC(OC6C(CO)OC(OC7C(CO)OC(OC1C(O)C2O)C(O)C7O)C(O)C6O)C(O)C5O)C(O)C4O)C(O)C3O)NC(=O)CCOCCOCCOCCOCCNC(=O)CCC(=O)N1Cc2ccccc2C#Cc2ccccc21)C(=O)N[C@@H](C)C(=O)Nc1ccc2c(c1)[C@@]1(C)CCC[C@](C)(C(=O)NC(=O)[C@@]3(C)CCC[C@]4(C)c5cc(O)ccc5CC[C@@H]34)[C@@H]1CC2` (stereo partly shown) [Ex49], in series [1] (10 min), the “Concentration (mM) of saturated solution” value was found to be 0.019 mM and the Solubility is reported as 0.05 mg/ mL mg/mL. The solubility (thermodynamic) (usually the concentration in solution at equilibrium with solid) at 10 min in series [1] (water, thermodynamic from solid) was found to be 48 µg/mL (≈ 19 µM). Also, the solubility (in general, the concentration that dissolves in the medium under given conditions) at 10 min in series [1] (setting [2]) amounted to 50 µg/mL (≈ 19.8 µM). In series [1] (setting [3]), this molecule registered a solubility at 10 min of 50 µg/mL (≈ 19.8 µM). In addition, at Cathepsin B, the capB amounted to 38.5% [1] and the “CapB (%)” value is recorded as “% % (60< % % ≤70 CapB (%))”. The “Percent of payload released at 4 hrs” value at Human liver Cathepsin B is 38.5%.

`CC(C)[C@H](NC(=O)CCOCCOCCOCCOCCNC(=O)CCC(=O)N1Cc2ccccc2C#Cc2ccccc21)C(=O)N[C@@H](C)C(=O)Nc1ccc2c(c1)[C@@]1(C)CCC[C@](C)(C(=O)NC(=O)[C@@]3(C)CCC[C@]4(C)c5cc(O)ccc5CC[C@@H]34)[C@@H]1CC2` [Ex48, 1-(4-{2-Azatricyclo[10.4.0.0^4,9]hexadeca-1(12),4(9),5,7,13,15-hexaen-10-yn-2-yl}-4-oxobutanamido)-N-[(1S)-1-{[(1 S)-1-{[(4bS,8S,8aR)-8-{[(1S,4aS,10aR)-6-hydroxy-1,4a-dimethyl-1,2,3,4,4a,9,10,10a-octahydrophenanthrene-1-carbonyl]carbamoyl}-4b,8-dimethyl-4b,5,6,7,8,8a,9,10-octahydrophenanthren-3-yl]carbamoyl}ethyl]carbamoyl}-2-methylpropyl]-3,6,9,12-tetraoxapentadecan-15-amide] showed a Solubility in series [1] (10 min) of under 0.1 mg/ mL mg/mL. The molecule further showed a solubility at 10 min in series [1] (setting [2]) of under 100 µg/mL. This molecule also gave a solubility at 10 min in series [1] (setting [3]) of under 100 µg/mL. At Cathepsin B, the “Cathepsin B cleavage rate” value was 62%, the capB was 13.6% and the “CapB (%)” value is “% (% ≤50 CapB (%))”. Besides, the “Percent of payload released at 4 hrs” value on Human liver Cathepsin B amounted to 13.6%.

For `CCCC1O[C@@H]2C[C@H]3[C@@H]4C[C@H](F)C5=CC(=O)C=C[C@]5(C)[C@@]4(F)[C@@H](O)C[C@]3(C)[C@]2(C(=O)CNC(=O)OCc2ccc(NC(=O)[C@H](CCCNC(N)=O)NC(=O)[C@@H](NC(=O)CCOCCOCCOCCOCCNC(=O)CCC(=O)N3Cc4ccccc4C#Cc4ccccc43)C(C)C)cc2)O1` (stereo partly shown) [Ex58, DIBAC-suc-PEG4-vcPAB-1h], the solubility at 10 min in series [1] (setting [4]) was under 20 µg/mL. Further, the solubility at 10 min in series [1] (setting [5]) was under 20 µg/mL. Also, on Cathepsin B, the capB amounted to 20.8% and the “CapB (%)” value is given as “% (% ≤50 CapB (%))”. Moreover, the “Percent of payload released at 4 hrs” value at Human liver Cathepsin B is reported as 7.5-17.2%.

`CC[C@H](C)[C@@H]([C@@H](CC(=O)N1CCC[C@H]1[C@H](OC)[C@@H](C)C(=O)N[C@H](C)[C@@H](O)c1ccccc1)OC)N(C)C(=O)[C@@H](NC(=O)[C@@H](NC)C(C)C)C(C)C` [MMAE] (H-[NMeV]V[Dil][Dolaproine]-X1): a half-maximal response in the series on SKBR3 cells (Homo sapiens, SK-BR-3, 120 h) (EC50) required 0.19 nM. For the same molecule, in the series on SKBR3 cells (SKBR3 cells, 5 days, highest concentration tested), the “% kill” value is recorded as at least 90%.

For the molecule `CCCC1O[C@@H]2C[C@H]3[C@@H]4C[C@H](F)C5=CC(=O)C=C[C@]5(C)[C@@]4(F)[C@@H](O)C[C@]3(C)[C@]2(C(=O)CNC(=O)OCc2ccc(NC(=O)[C@H](CCCNC(N)=O)NC(=O)[C@@H](NC(=O)[C@@H](CCCCNC(=O)COC3CCCCCc4c3nnn4CC3OC4OC5C(CO)OC(OC6C(CO)OC(OC7C(CO)OC(OC8C(CO)OC(OC9C(CO)OC(OC3C(O)C4O)C(O)C9O)C(O)C8O)C(O)C7O)C(O)C6O)C(O)C5O)NC(=O)CCOCCOCCOCCOCCNC(=O)CCC(=O)N3Cc4ccccc4C#Cc4ccccc43)C(C)C)cc2)O1` (stereo partly shown) [Ex59, DIBAC-suc-PEG4-dLys(COT-CD)-vcPAB-1h], the solubility at 10 min in series [1] (setting [4]) stood at 26 µg/mL (≈ 9.64 µM); in series [1] (setting [5]) it was 26 µg/mL (≈ 9.64 µM); in series [1] (water, thermodynamic from solid, water, read-out: Solubility) it was 26 µg/mL (≈ 9.64 µM). The molecule also gave a capB at Cathepsin B of 29%. Moreover, the “CapB (%)” value at Cathepsin B is “% (% ≤50 CapB (%))”. For the same molecule, the “Percent of payload released at 4 hrs” value at Human liver Cathepsin B amounted to 28.9%.
